Measurements: PubChem BioAssay AID1963845 (Molecular Pharmacology Branch, DTP, NCI, 2024)
Values joined by “and” are separate entries in the source; they are usually repeats but may differ in a detail not shown here. Equal entries are not always repeated.

System: 429239-143-T-J1-PDC complex spheroid viability
Experiment: Anticancer human tumor 429239-143-T-J1-PDC patient-derived small cell lung carcinoma cell line growth inhibition [POLQ]
Conditions: for viability, T/C: stronger effect = lower value
Description: Multicellular complex tumor spheroid response to Polymerase (POL) inhibitors (novobiocin, ART-558, RP6685) in combination with a variety of drugs and investigational agents in selected tumor cell lines
The POL inhibitors (novobiocin, ART-558, and RP6685) were evaluated both individually and in combination with standard of care and investigational anticancer small molecules within a complex spheroid model of solid tumors. . Complex spheroids include a stromal component modeled by human endothelial cells (HUVEC) and fibroblasts modeled by human mesenchymal stem cells (MSCs). The concentration ranges selected for each drug and investigational agent were based upon clinically achievable concentrations if the clinical Cmax of the agent was known.
Compounds. The drugs and investigational agents: novobiocin (NSC847541), ART-558 (NSC835418), RP-6685 (NSC848927), peposertib (NSC802822), ceralasertib (NSC780249), elimusertib (NSC800525), camonsertib (NSC841442), AZD-1390 (NSC803789), olaparib (NSC753686), talazoparib (NSC767125), rucaparib (NSC756644), sotorasib (NSC818433), MRTX-1133 (NSC836407), SN-38 (NSC673596), topotecan (NSC609699), epotoside (NSC141540), doxorubicin (NSC123127), gemcitabine (NSC613327), 5-fluorouracil (NSC19893), paclitaxel (NSC125973), vemurafenib (NSC761431), MSA-2 (NSC828583), SN-011 (NSC837082), adavosertib (NSC754352), prexasertib (NSC758257), carboplatin (NSC241240) and oxaliplatin (NSC266046), were obtained from the National Cancer Institute (NCI) Developmental Therapeutics Program Chemical Repository (21). The FDA-approved anticancer drug set is available from the Developmental Therapeutics Program at https://dtp.cancer.gov/organization/dscb/obtaining/. […] The stock solutions were prepared in dimethyl sulfoxide (DMSO, Sigma-Aldrich, St. Louis, MO, cat. D2650), except for the platinum compounds which were prepared in saline (Quality Biological, Gaithersburg, MD, cat. 114-055-101), at 800-fold the tested concentration and stored at -70 degrees C prior to their use. All drugs and investigational agents were tested over a range starting from a high concentration at or near the clinical Cmax and decreasing in half-log increments. If the clinical Cmax for an agent had not been determined, the highest concentration tested was 10 microM, except for SN-38, which was tested at a high concentration of 1 microM.
Cell Culture. All cells were maintained in an incubator at 37 degrees C and 5% CO2 with 95% humidity. The PDC lines were cultured according to standard operating procedures established by the NCI PDMR (https://pdmr.cancer.gov). Table 3 of the manuscript, lists the cell lines along with the number of the three cell types plated to form the mct-spheroids and media for tumor cell growth. After thawing, all PDC lines, except 997537-175-T-J1-PDC and 415267-285-R-J2-PDC, were cultured in Matrigel-coated flasks prepared with a working solution of 1X Ham's F-12 nutrient mix, without supplementation (Thermo Fisher Scientific, cat. 11765054), 100 U/mL penicillin-streptomycin (Thermo Fisher Scientific, cat. 15140122), and 2.5% Matrigel (Corning Inc., Corning, NY, cat. 354248) for the first three passages. The two PDC lines 997537-175-T-J1-PDC and 415267-285-R-J2-PDC were cultured on uncoated flasks. The 857933-349-R-J2-PDC line was cultured in 6C/Colon 1B media containing advanced DMEM/F-12 (Thermo Fisher Scientific, cat. 12634028), 10 mM HEPES (Thermo Fisher Scientific, cat. 15630080), 1X GlutaMAX supplement (Thermo Fisher Scientific, cat. 35050061), 0.1 mg/mL primocin (InvivoGen, San Diego, CA, cat. ant-pm-2), 10% defined fetal bovine serum, heat inactivated (HyClone Laboratories Inc., Logan, UT, cat. SH30070.03HI), 50% L-WRN conditioned media (ATCC, cat. CRL-3276), 1.25 mM N-Acetyl-L-cysteine (Sigma-Aldrich, cat. A9165), 10 mM nicotinamide (Sigma-Aldrich, cat. N0636), 1X B-27 supplement (Thermo Fisher Scientific, cat. 17504044), 1X N-2 supplement (Thermo Fisher Scientific, cat. […]
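Further: luminescence signal used as surrogate measure of viable cells; spheroids exposed to compounds for seven days before readout.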
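Wherever viability, T/C is given: 100% = DMSO vehicle control viability as luminescence relative to vehicle.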

With `O=c1[nH]cc(F)c(=O)[nH]1` the viability, T/C (compound 0.0316 µM) was 89.3% and 95% and 104%, the viability, T/C (compound 0.1 µM) was 103% and 106% and 96% and the viability, T/C (compound 0.316 µM) was 92.2% and 102% and 97.8%. For the same compound, the viability, T/C (compound 1 µM) was 84% and 89.3% and 89.6%, the viability, T/C (compound 3.16 µM) was 70.4% and 45.9% and 66.5% and the viability, T/C (compound 10 µM) was 45.4% and 32.2% and 40.9%. For the same compound, the IC50 (curve of compound) was 8200 nM and 2830 nM and 6660 nM.

With `COc1cc2cc(C(=O)CCC(=O)O)sc2cc1OC` the viability, T/C (compound 0.0316 µM) was 92.3% and 91.8% and 112%, the viability, T/C (compound 0.1 µM) was 105% and 102% and 92.5% and the viability, T/C (compound 0.316 µM) was 94.3% and 97.6% and 97.8%. The viability, T/C (compound 1 µM) was 108% and 109% and 97.7%, the viability, T/C (compound 3.16 µM) was 108% and 107% and 97.8% and the viability, T/C (compound 10 µM) was 97.3% and 104% and 87.3%. The IC50 (curve of compound) was > 10000 nM.

`COc1cc(C2c3cc4c(cc3C(OC3OC5COC(C)OC5C(O)C3O)C3COC(=O)C23)OCO4)cc(OC)c1O` (stereo unspecified) + COC1C(OC(N)=O)C(O)C(Oc2ccc3c(O)c(NC(=O)c4ccc(O)c(CC=C(C)C)c4)c(=O)oc3c2C)OC1(C)C showed an IC50 (curve of first compound, second compound 0.0316 µM) of 302 nM, an IC50 (curve of first compound, second compound 0.1 µM) of 249 nM and an IC50 (curve of first compound, second compound 0.316 µM) of 417 nM. For the same compound, the IC50 (curve of first compound, second compound 1 µM) was 325 nM, the IC50 (curve of first compound, second compound 3.16 µM) was 349 nM and the IC50 (curve of first compound, second compound 10 µM) was 274 nM. It also gave a viability, T/C (second compound 0.0316 µM, first compound 0.0316 µM) of 101%, a viability, T/C (second compound 0.0316 µM, first compound 0.1 µM) of 81.2% and a viability, T/C (second compound 0.0316 µM, first compound 0.316 µM) of 53%. It also gave a viability, T/C (second compound 0.0316 µM, first compound 1 µM) of 15.8%, a viability, T/C (second compound 0.0316 µM, first compound 3.16 µM) of 18.2% and a viability, T/C (second compound 0.0316 µM, first compound 10 µM) of 16.6%. It also gave a viability, T/C (second compound 0.1 µM, first compound 0.0316 µM) of 106%, a viability, T/C (second compound 0.1 µM, first compound 0.1 µM) of 72% and a viability, T/C (second compound 0.1 µM, first compound 0.316 µM) of 47.9%. For the same compound, the viability, T/C (second compound 0.1 µM, first compound 1 µM) was 22%, the viability, T/C (second compound 0.1 µM, first compound 3.16 µM) was 18.2% and the viability, T/C (second compound 0.1 µM, first compound 10 µM) was 18.1%. For the same compound, the viability, T/C (second compound 0.316 µM, first compound 0.0316 µM) was 88.1%, the viability, T/C (second compound 0.316 µM, first compound 0.1 µM) was 85.3% and the viability, T/C (second compound 0.316 µM, first compound 0.316 µM) was 59.4%. It also gave a viability, T/C (second compound 0.316 µM, first compound 1 µM) of 20.4%, a viability, T/C (second compound 0.316 µM, first compound 3.16 µM) of 16.6% and a viability, T/C (second compound 0.316 µM, first compound 10 µM) of 16.1%. It also gave a viability, T/C (second compound 1 µM, first compound 0.0316 µM) of 90.8%, a viability, T/C (second compound 1 µM, first compound 0.1 µM) of 75.5% and a viability, T/C (second compound 1 µM, first compound 0.316 µM) of 54%. It also gave a viability, T/C (second compound 1 µM, first compound 1 µM) of 18.6%, a viability, T/C (second compound 1 µM, first compound 3.16 µM) of 14% and a viability, T/C (second compound 1 µM, first compound 10 µM) of 17%. The viability, T/C (second compound 3.16 µM, first compound 0.0316 µM) was 88.4%, the viability, T/C (second compound 3.16 µM, first compound 0.1 µM) was 88.9% and the viability, T/C (second compound 3.16 µM, first compound 0.316 µM) was 52.4%. For the same compound, the viability, T/C (second compound 3.16 µM, first compound 1 µM) was 20.3%, the viability, T/C (second compound 3.16 µM, first compound 3.16 µM) was 17% and the viability, T/C (second compound 3.16 µM, first compound 10 µM) was 13.7%. The viability, T/C (second compound 10 µM, first compound 0.0316 µM) was 97.4%, the viability, T/C (second compound 10 µM, first compound 0.1 µM) was 79.1% and the viability, T/C (second compound 10 µM, first compound 0.316 µM) was 47.7%. The viability, T/C (second compound 10 µM, first compound 1 µM) was 18.9%, the viability, T/C (second compound 10 µM, first compound 3.16 µM) was 23% and the viability, T/C (second compound 10 µM, first compound 10 µM) was 14.2%.

With `COC1C(OC(N)=O)C(O)C(Oc2ccc3c(O)c(NC(=O)c4ccc(O)c(CC=C(C)C)c4)c(=O)oc3c2C)OC1(C)C` (stereo unspecified) the viability, T/C (compound 0.0316 µM) was 99.8% [middle of 13 runs], the viability, T/C (compound 0.1 µM) was 101% [middle of 13 runs] and the viability, T/C (compound 0.316 µM) was 100% [middle of 13 runs]. The viability, T/C (compound 3.16 µM) was 99.4% [middle of 13 runs] and the IC50 (compound alone, run of 01/08/2024) was > 10000 nM.
